Assay results as given in article PMC9611259, “Antimicrobial Peptides Active in In Vitro Models of Endodontic Bacterial Infections Modulate Inflammation in Human Cardiac Fibroblasts” (Pharmaceutics, 2022).
≈ marks a conversion by molar mass, not a printed value. Where two headings read alike, the source gives them in different places. Where a SMILES comes first, the peptide text is derived from it. Bridges are numbered along the chain shown (N, C = ends). Roman numbers before positions name the chains, in order. [ ]: non-standard residue; d: D form. βAla = NCCC(=O)O

Tests used:
E. coli LC711 [1] = format: cell-based, Escherichia coli
Procedure: (§1) The bacteria reported in Table 1 were used for conventional susceptibility testing experiments. M33D and M33i/l MICs were determined in triplicate on reference and clinical strains using a microdilution assay, performed according to the guidelines of the Clinical and Laboratory Standards Institute. Briefly, strains were grown on Mueller–Hinton (MH) agar plates (Becton Dickinson, Franklin Lakes, NJ, USA) and a single colony for each strain was picked using a sterile cotton swab, streaked in sterile cation-supplemented MH, and measured with a densitometer (Densichek, bioMèrieux, Marcy l’Etoile, France) up to 0.15 optical density. Wells of a microtiter plate containing 50 μL serial-doubling dilutions of the peptides were inoculated with an equal volume of bacterial suspension. The final bacterial inoculum was 5 × 10^4 CFU/well in a volume of 100 μL. […] Assays were performed in triplicate, and the median MIC values were recorded.

E. coli TG1 [2] = format: cell-based, Escherichia coli; conditions: reference strain; CLSI microdilution, 5 × 10^4 CFU/well, 35° 18–20 h, median of triplicate
Procedure: as §1

E. faecalis ATCC 51299 [3] = format: cell-based, Enterococcus faecalis
Procedure: as §1

E. faecalis Fi74B1 = format: cell-based, Enterococcus faecalis
Procedure: as §1

E. faecalis Fi74B4 = format: cell-based, Enterococcus faecalis
Procedure: as §1

E. faecalis PE [4] = format: cell-based, Enterococcus faecalis
Procedure: as §1

C. albicans ATCC 90028 = format: cell-based
C. glabrata ATCC 90030 = format: cell-based
C. krusei ATCC 6268 = format: cell-based
E. faecalis ATCC 51299 [5] = format: cell-based, Enterococcus faecalis; conditions: 24 h preformed biofilm challenged with peptide 14 h at 37 °C, crystal violet OD595, triplicate wells
Procedure: (§2) For MBIC, the bacterial suspension (200 μL) of E. faecalis PE, E. faecalis 51299, E. coli TG1, or E. coli LC711, obtained as above, was added to wells in triplicate, in a 96-well U-bottom plate and incubated at 37 °C for 24h. The supernatant was removed, and 200 μL M33D and M33i/l diluted in TSB was added to the wells in twofold serial dilutions of each peptide.
(§3) Untreated bacteria were used as positive control. After 14 h of static incubation at 37 °C, wells were washed thrice with PBS and fixed with PFA 4% in PBS (200 μL) for 30 min at room temperature. Wells were then washed three times, and crystal violet (1% in water) was added and incubated for 30 min in the dark. Wells were again washed, and the color dissolved with ethanol/acetone 80:20. Color was read at 595 nm. The MBIC is the lowest concentration of an antibiotic that results in an OD595 nm difference of ≤10% of the mean of two control well readings.
(§4) Biofilm inhibition activity was evaluated on the basis of two parameters: the biofilm prevention concentration (BPC) and the minimal biofilm inhibition concentration (MBIC). The BPC is the lowest concentration of peptide that results in 10% lower biofilm formation compared to untreated controls. The biofilm was measured after removing planktonic cells by washing the wells, previously incubated for 24 h with the bacteria and the peptide. MBIC is the lowest concentration of peptide that results in a 10% reduction in preformed biofilm compared to untreated controls. A 24 h biofilm was challenged with serial dilutions of the peptides for 14 h. Then after removal of planktonic cells, the residual biofilm was measured. Crystal violet absorbance at […] was used to measure biofilm in the case of both parameters.

E. faecalis PE [6] = format: cell-based, Enterococcus faecalis; conditions: 24 h preformed biofilm challenged with peptide 14 h at 37 °C, crystal violet OD595, triplicate wells
Procedure: as §2, §3, §4

E. coli LC711 [7] = format: cell-based, Escherichia coli; conditions: 24 h preformed biofilm challenged with peptide 14 h at 37 °C, crystal violet OD595, triplicate wells
Procedure: as §2, §3, §4

E. coli TG1 [8] = format: cell-based, Escherichia coli; conditions: 24 h preformed biofilm challenged with peptide 14 h at 37 °C, crystal violet OD595, triplicate wells
Procedure: as §2, §3, §4

C. striatum ATCC = format: cell-based
Procedure: as §1

[9] = test system: Enterococcus faecalis and faecium; format: cell-based
Procedure: as §1

S. pneumoniae ATCC 49619 = format: cell-based
Procedure: as §1

S. pyogenes CCUG2557 = format: cell-based
Procedure: as §1

[10] = test system: Staphylococcus aureus and epidermidis; format: cell-based
Procedure: as §1

Candida species = format: cell-based
in vitro = in vitro ADME; conditions: human, serum
Procedure: A pool of sera from healthy volunteers (n = 5) was diluted to 50% with RPMI 1640 medium. A 5 μg/mL solution of the peptides in 50% serum was incubated at 37 °C for different time intervals (2, 4, 24, 48, and 72 h). At the established time, trichloroacetic acid was added at a 7.5% concentration, and the sample was centrifuged at 12,000–13,000× g for 15 min. Part of the supernatant was used for the MALDI-TOF analysis (2 μL) and part (250 μL) for the HPLC analysis, after being diluted with 1% TFA (750 μL). Time-zero HPLC and MS-spectroscopy spectra were obtained immediately after mixing the peptide with 50% serum. The presence of the intact peptide was determined in HPLC by spotting and integrating the peptide peak at the correct retention time. The identity of the peptide peak was further also confirmed by MALDI mass spectrometry.

[11] = Eukaryotic cell viability assay (MTT); format: cell-based, murine; conditions: mouse
Procedure: RAW 264.7 cells, 5 × 10^3 per well, were seeded in 96-well plates and incubated for 24 h at 37 °C in a 5% CO2 atmosphere. A 100 μL volume of peptides at different concentrations in fresh medium was then added to the wells and kept for 24 h. Then 20 μL MTT (5 mg/mL) was added to each well, and the plate was incubated at 37 °C for 3 h. Finally, 120 μL HCl 4 mM in isopropanol was added to each well to dissolve the formazan crystals. Optical density was measured with a microplate reader (Bio-Rad, Hercules, CA, USA) at 570 nm. Cell viability was calculated by comparing the values of treated with those of untreated cells. Curves and EC50 were calculated using GraphPad Prism 5.03 software.

P. aeruginosa ATCC 27853 = format: cell-based, Pseudomonas aeruginosa
Procedure: as §1

P. aeruginosa AV 65 = format: cell-based, Pseudomonas aeruginosa
Procedure: as §1

K. pneumoniae 7086042 = format: cell-based, Klebsiella pneumoniae
Procedure: as §1

K. pneumoniae ATCC 13833 = format: cell-based, Klebsiella pneumoniae
Procedure: as §1

E. coli ATCC 25922 = format: cell-based, Escherichia coli
Procedure: as §1

E. coli W03BG0025 = format: cell-based, Escherichia coli
Procedure: as §1

S. aureus 3851 = format: cell-based, Staphylococcus aureus
Procedure: as §1

S. aureus USA 300 = format: cell-based, Staphylococcus aureus
Procedure: as §1

S. epidermidis 6154 = format: cell-based
Procedure: as §1

[12] = test system: S. epidermidis ATCC 14990; format: cell-based
Procedure: as §1

E. faecalis = conditions: standard-of-care antibiotics against E. faecalis; cited from earlier work
Procedure: As reported in Table 2, biofilm inhibition was tested against two strains of E. faecalis, ATCC 51,299 and PE endodontic isolate, and two strains of E. coli, TG1 reference strain and LC711 clinical isolate (Table 2). The BPC of M33D was equal to the MIC against E. faecalis reference strain ATCC 51,299 and clinical isolate PE. The BPC of M33i/l was double and equal to the MIC in E. faecalis reference strain and clinical isolate, respectively. The MBIC of both peptides against E. faecalis reference strain and PE was 6 μM, i.e., from two to three times the MIC. The results are particularly promisi ...

For CC[C@@H](C)[C@@H](NC(=O)[C@@H](CCCCN)NC(=O)[C@H](N)CCCCN)C(=O)N[C@H](CCCNC(=N)N)C(=O)N[C@@H](C(=O)N[C@H](CCCNC(=N)N)C(=O)N[C@H](CC(C)C)C(=O)N[C@H](CO)C(=O)N[C@H](C)C(=O)NCCCC[C@H](NC(=O)[C@@H](C)NC(=O)[C@@H](CO)NC(=O)[C@@H](CC(C)C)NC(=O)[C@@H](CCCNC(=N)N)NC(=O)[C@H](NC(=O)[C@@H](CCCNC(=N)N)NC(=O)[C@H](NC(=O)[C@@H](CCCCN)NC(=O)[C@H](N)CCCCN)[C@H](C)CC)C(C)C)C(=O)NCCCC[C@H](NC(=O)[C@H](CCCCNC(=O)[C@@H](C)NC(=O)[C@@H](CO)NC(=O)[C@@H](CC(C)C)NC(=O)[C@@H](CCCNC(=N)N)NC(=O)[C@H](NC(=O)[C@@H](CCCNC(=N)N)NC(=O)[C@H](NC(=O)[C@@H](CCCCN)NC(=O)[C@H](N)CCCCN)[C@H](C)CC)C(C)C)NC(=O)[C@@H](C)NC(=O)[C@@H](CO)NC(=O)[C@@H](CC(C)C)NC(=O)[C@@H](CCCNC(=N)N)NC(=O)[C@H](NC(=O)[C@@H](CCCNC(=N)N)NC(=O)[C@H](NC(=O)[C@@H](CCCCN)NC(=O)[C@H](N)CCCCN)[C@H](C)CC)C(C)C)C(=O)NCCC(=O)O)C(C)C [M33D], the MIC (E. coli LC711 [1]; LC711) was 1.5 µM (≈ 7.02 µg/mL), the MIC (E. coli TG1 [2]) was 1.5 µM (≈ 7.02 µg/mL) and the MIC (E. faecalis ATCC 51299 [3]) was 3 (16) μM. The MIC (E. faecalis Fi74B1) was 0.8 (4) μM, the MIC (E. faecalis Fi74B4) was 1.5 (8) μM and the MIC (E. faecalis PE [4]) was 1.5 (8) μM. For the same compound, the MIC (C. albicans ATCC 90028) was 5 (24) μM, the MIC (C. glabrata ATCC 90030) was 12 (64) μM and the MIC (C. krusei ATCC 6268) was 6 (32) μM. It also gave an MBIC (E. faecalis ATCC 51299 [5]) of 6 µM, an MBIC (E. faecalis PE [6]) of 6 µM and an MBIC (E. coli LC711 [7]) of 3 µM. For the same compound, the MBIC (E. coli TG1 [8]) was 3 µM, the MIC (C. striatum ATCC) was 1.5 µM (≈ 7.02 µg/mL) and the “MIC range against Enterococcus faecalis and faecium” value [9] was 0.8 to 3 µM. For the same compound, the MIC (S. pneumoniae ATCC 49619) was 6 (32) μM, the MIC (S. pyogenes CCUG2557) was 6 (32) μM and the “MIC range against Staphylococcus aureus and epidermidis” value [10] was 0.4 to 1.5 µM. For the same compound, the “MIC range against Candida species” value (Candida species) was 5 to 12 µM, the remaining at 72 h, 5 μg/mL (in vitro) was 31% and the EC50 at 24 h ([11]; 24 h incubation at 37 °C, MTT, n = 3, read-out: EC50 cytotoxicity) was 30 µM.

For CC(C)C[C@@H](NC(=O)[C@@H](CCCCN)NC(=O)[C@H](N)CCCCN)C(=O)N[C@H](CCCNC(=N)N)C(=O)N[C@@H](C(=O)N[C@H](CCCNC(=N)N)C(=O)N[C@H](CC(C)C)C(=O)N[C@H](CO)C(=O)N[C@H](C)C(=O)NCCCC[C@H](NC(=O)[C@@H](C)NC(=O)[C@@H](CO)NC(=O)[C@@H](CC(C)C)NC(=O)[C@@H](CCCNC(=N)N)NC(=O)[C@H](NC(=O)[C@@H](CCCNC(=N)N)NC(=O)[C@@H](CC(C)C)NC(=O)[C@@H](CCCCN)NC(=O)[C@H](N)CCCCN)C(C)C)C(=O)NCCCC[C@H](NC(=O)[C@H](CCCCNC(=O)[C@@H](C)NC(=O)[C@@H](CO)NC(=O)[C@@H](CC(C)C)NC(=O)[C@@H](CCCNC(=N)N)NC(=O)[C@H](NC(=O)[C@@H](CCCNC(=N)N)NC(=O)[C@@H](CC(C)C)NC(=O)[C@@H](CCCCN)NC(=O)[C@H](N)CCCCN)C(C)C)NC(=O)[C@@H](C)NC(=O)[C@@H](CO)NC(=O)[C@@H](CC(C)C)NC(=O)[C@@H](CCCNC(=N)N)NC(=O)[C@H](NC(=O)[C@@H](CCCNC(=N)N)NC(=O)[C@@H](CC(C)C)NC(=O)[C@@H](CCCCN)NC(=O)[C@H](N)CCCCN)C(C)C)C(=O)NCCC(=O)O)C(C)C [M33i/l] (I: H-[dK][dK][dL][dR][dV][dR][dL][dS][dA]KK[βAla]-OH / II: H-[dK][dK][dL][dR][dV][dR][dL][dS][dA]K / III: H-[dK][dK][dL][dR][dV][dR][dL][dS][dA] / IV: H-[dK][dK][dL][dR][dV][dR][dL][dS][dA]; amide I:10-IV:C, I:11-II:C, II:10-III:C), the MIC (P. aeruginosa ATCC 27853) was 0.8 (4) μM, the MIC (P. aeruginosa AV 65) was 1.5 (8) μM and the MIC (K. pneumoniae 7086042) was 6 (32) μM. The MIC (K. pneumoniae ATCC 13833) was 3 (16) μM, the MIC (E. coli ATCC 25922) was 3 (16) μM and the MIC (E. coli LC711 [1]; ColR (colistin-resistant) clinical isolate, CLSI microdilution, 5 × 10^4 CFU/well, 35° 18–20 h, median of triplicate) was 0.3 (1.6) μM. The MIC (E. coli TG1 [2]) was 1.5 µM (≈ 7.02 µg/mL), the MIC (E. coli W03BG0025) was 3 (16) μM and the MIC (S. aureus 3851) was 0.8 (4) μM. The MIC (S. aureus USA 300) was 1.5 (8) μM, the MIC (E. faecalis ATCC 51299 [3]) was 1.5 (8) μM and the MIC (E. faecalis PE [4]) was 1.5 (8) μM. It also gave an MBIC (E. faecalis ATCC 51299 [5]) of 6 µM, an MBIC (E. faecalis PE [6]) of 6 µM and an MBIC (E. coli LC711 [7]) of 3 µM. For the same compound, the MBIC (E. coli TG1 [8]) was 3 µM, the MIC (S. epidermidis 6154) was 0.8 (4) μM and the MIC [12] was 0.8 (4) μM. The remaining at 72 h, 5 μg/mL (in vitro) was 25% and the EC50 at 24 h [11] was 18 µM.

For CC1(C)S[C@@H]2[C@H](NC(=O)[C@H](N)c3ccccc3)C(=O)N2[C@H]1C(=O)O [ampicillin], the “MBIC as multiple of the MIC” value (E. faecalis) is given as 2048 times the MIC.

In the case of CC(=O)NC[C@H]1CN(c2ccc(N3CCOCC3)c(F)c2)C(=O)O1 [linezolid], the “MBIC as multiple of the MIC” value (E. faecalis) is given as 1024 times the MIC.
